Test results taken from patent US11364246B2, “Compounds” (TMEM16A Limited, priority 2019, dated 2022).

These compounds were tested against human TMEM16A (Homo sapiens, UniProt Q5XXA6) (assay: Automated whole-cell patch clamp (Qpatch) assay to detect TMEM16A activity in recombinant cells). Conditions: 3.33 μM test compound; % increase of baseline TMEM16A current; FRT cells stably expressing human TMEM16A (TMEM16Aabc variant); intracellular calcium at EC20.
Assay type: cell-based
Method: Automated Whole-Cell Patch Clamp Assay to Detect TMEM16A Activity in Recombinant Cells
Fisher rat thyroid (FRT) cells stably expressing human TMEM16A (TMEM16Aabc variant; Dr Luis Galietta, Insituto Giannina, Italy) were cultured in T-75 flasks in Hams F-12 media with Coon's modification (Sigma) supplemented with 10% (v/v) foetal bovine serum, penicillin-streptomycin (10,000 U/mL/10000 pg/mL), G-418 (750 pg/mL), L-glutamine (2 mM) and sodium bicarbonate solution (7.5% v/v). At −90% confluence cells were harvested for experiments by detachment with a 2:1 (v/v) mixture of Detachin (BMS Biotechnology) and 0.25% (w/v) trypsin-EDTA. Cells were diluted to a density of 3.5-4.5×10^6 cells/mL with media consisting of CHO-S-SFM (Sigma), 25 mM HEPES (Sigma) and Soy bean trypsin inhibitor (Sigma).
FRT-TMEM16A cells were whole-cell patch clamped using an automated planar patch clamp system (Qpatch, Sophion). Briefly, once high resistance (GOhm) seals were established between the cells and the planar recording array the patch was ruptured using suction pulses to establish the whole-cell recording configuration of the patch clamp technique. The assay employed the following solutions (all reagents Sigma): Intracellular solution (mM): N-methyl-D-glucamine 130, CaCh 18.2, MgCh 1. HEPES 10, EGTA 10, BAPTA 20, Mg-ATP 2, pH 7.25, 325 mOsm with sucrose.
Extracellular solution (mM): N-methyl-D-glucamine 130, CaCl2 2, MgCh 1, HEPES 10, pH 7.3, 320 mOsm with sucrose.
The intracellular solution buffers intracellular calcium at levels required to give −20% activation of the maximal TMEM16A mediated current (EC20 for calcium ions). Cells were voltage clamped at a holding potential of −70 mV and a combined voltage step (to +70 mV)/ramp (−90 my to +90 mV) was applied at 0.05 Hz. After a period of current stabilisation test compounds, solubilised in 100% (v/v) DMSO and subsequently diluted into extracellular solution, were applied to generate a cumulative concentration response curve. Each concentration of test compound was incubated for 5 minutes before addition of the next concentration. After the final concentration was tested a supramaximal concentration of either a known active positive modulator or the TMEM16A inhibitor. CaCCinhAOI (Del La Fuente et al, 2008) was added to define the upper and lower limits of the assay.
Compound activity was quantified by measuring the increase in current upon compound addition and expressing this as a percentage increase of baseline TMEM16A current level. […]
Peak TMEM16A current at +70 mV was plotted as a function of time over the assay period. Baseline current (IBL) was measured after a period of stabilisation. The increase in current for each compound addition was determined by taking the peak current during the incubation period and subtracting the current from the previous recording period and then expressing this as a percentage of the baseline current. […]
For each additional concentration tested the increase in current was determined by subtracting the current from the previous incubation period and normalising the baseline value—for test concentration 2 in FIG. 1 this is: (I[#2]−I[# ? /IBL)×100
The values for each test concentration were plotted as a cumulative function of concentration eg. for test concentration two this would be the sum of the peak changes measured during concentration one plus concentration two.
In the case of `CC(C)(C)NC(=O)c1cc(NC(=O)C2(c3cccc(Cl)c3)CC2)ccn1` [Example 5.31, N-tert-butyl-4-[[1-(3-chlorophenyl)cyclopropanecarbonyl]amino]pyridine-2-carboxamide], the “% Potentiation @ 3.33 μM Avg” value is reported as 145%. For `CC(C)(C)NC(=O)c1cc(NC(=O)[C@@H]2CCc3ccccc32)ccn1` (single isomer, unassigned) [Example 21a, N-tert-Butyl-4-[[(1R)-indane-1-carbonyl]amino]pyridine-2-carboxamide or N-tert-Butyl-4-[[(1S)-indane-1-carbonyl]amino]pyridine-2-carboxamide], the “% Potentiation @ 3.33 μM Avg” value was 99%. In the case of `O=C(Cc1cc(Cl)ccc1O)Nc1ccnc(C(=O)NC23CCC(F)(C2)C3)c1` [Example 44, 4-[[2-(5-Chloro-2-hydroxy-phenyl)acetyl]amino]-N-(4-fluoro-1-bicyclo[2.1.1]hexanyl)pyridine-2-carboxamide], the “% Potentiation @ 3.33 μM Avg” value is reported as 1%. In the case of `C#CC(C)(C)NC(=O)c1cc(NC(=O)Cc2cccc3cc[nH]c23)ccn1` [Example 79.3, N-(1,1-Dimethylprop-2-ynyl)-4-[[2-(1H-indol-7-yl)acetyl]amino]pyridine-2-carboxamide], the “% Potentiation @ 3.33 μM Avg” value is reported as 64%. With `O=C(Cc1cc(Cl)ccc1O)Nc1ccnc(C(=O)N[C@@]2(CO)CCOC2)c1` (single isomer, unassigned) [Example 35b, 4-[[2-(5-Chloro-2-hydroxy-phenyl)acetyl]amino]-N-[(3R)-3-(hydroxymethyl)tetrahydrofuran-3-yl]pyridine-2-carboxamide or 4-[[2-(5-chloro-2-hydroxy-phenyl)acetyl]amino]-N-[(3S)-3-(hydroxymethyl)tetrahydrofuran-3-yl]pyridine-2-carboxamide] the “% Potentiation @ 3.33 μM Avg” value was 190%.
